Columns and labels:
[1] = tested on: LPS-induced NFkB activation; assay: NFkB-luciferase reporter mice assay (LPS-induced endotoxemia); type: in vivo; settings: LPS 2 mg/kg plus compound 1 mg/kg i.p.
Procedure: Compound preparation and delivery. All 65 identified compounds were received in solid form and stored at 4° C. until use. Stock solutions of each compound were made by dissolving the appropriate amount of each compound in dimethyl sulfoxide (DMSO) to yield a concentration of 10 mM. Immediately prior to injection into experimental animals, the compounds were diluted to an experimental concentration of 100 uM in phosphate-buffered saline (PBS). Total concentration of DMSO in the final diluted drug was 1%. Compounds were closely examined to insure that no precipitate formed prior to injection and were stored on ice until injection. All compounds were given via intraperitoneal (i.p.) injection in a total volume of 200 ul using a 1 cc syringe and 27 gauge needle. In all experiments listed below, the compounds were delivered to the experimental mice 30 minutes prior to injection with lipopolysaccharide (LPS) to induce endotoxemia. Control animals not receiving compound received 1% DMSO dissolved in PBS. Following drug injection, the mice were observed closely in their cages for signs of immediate toxicity or adverse reaction to the drug, including but not limited to piloerection, tachypnea, bleeding, abnormal or aggressive behavior, signs of altered mental status, and level of activity.
Induction of endotoxemia. All mice were housed and cared for at the Rangos Research Center, Children's Hospital of Pittsburgh (Pittsburgh, Pa.). All experiments were approved by the Children's Hospital of Pittsburgh Animal Care Committee and by the Institutional Review Board of the University of Pittsburgh. Swiss Webster (CFW) and NFkB-luciferase reporter mice were obtained from The Jackson Laboratory. Throughout the course of all experiments, mice were housed 4 per cage with access to food, water, and standard bedding. Endotoxemia was induced in all experiments by i.p. injection of LPS (Escherichia coli 0111:B4 purified by gel filtration chromatography, >99% pure, Sigma-Aldrich) at a dose of 2 mg/kg for 6 hours. At the end of each experiment, all animals were euthanized by CO2 hypoxia and cervical dislocation.
NFkB-luciferase reporter mice assay. NFkB-luciferase reporter mice, in which the […], were subjected to endotoxemia with or without pretreatment with experimental compounds. The experimental compounds treated by this assay were compounds 1-6, with compounds 1-3 tested first and compounds 4-6 tested later. For both experiments, the mice were 6 weeks old on the date of the experiment. […] After whole body imaging, an additional injection of luciferin is given and animals were euthanized, organs were harvested, and the extent of NFkB activation within various tissues was further analyzed by an additional luminescence image of the individual organs. […]

iNOS mRNA [2] = assay: CFW-NEC mouse model (formula feeding), iNOS mRNA levels; type: in vivo; settings: 1 mg/kg, i.p., once daily for the first four days of the five day model; relative to RPLO
From the text: (§1) Inducible nitric oxide synthase (iNOS) is associated with necrotizing enterocolitis (NEC) in human infants. In a second set of experiments, the CFW-NEC mouse model system for NEC was used to evaluate the effect of various compounds from TABLES 1 and 2 above on iNOS mRNA levels. A model system for NEC was induced in newborn mouse pups by formula feeding, where control animals were breast-fed (Sodhi et al., 2010, Gastroenterol. 138(1):185-196; Richardson et al., 2010, Gastroenterol. 139(3):904-917). […] Note that RPLO stands for 505 ribosomal subunit protein L15, an acknowledged housekeeping gene, which means that it is a constitutive gene expressed at relatively constant levels by all cells and is thus used as a reference for comparing other genes which may vary under experimental conditions. In this same model system, levels of TLR4 mRNA levels were also evaluated. […] In contrast, the level of TLR4 was not increased in FF animals treated with C34 (1 mg/kg, i.p. once daily for the first four days of the five day model) and indeed mRNA levels were 30 percent below normal (see FIG. 14).

TLR4 mRNA = assay: CFW-NEC mouse model (formula feeding), TLR4 mRNA levels; type: in vivo; settings: 1 mg/kg, i.p. once daily for the first four days of the five day model
From the text: as §1

TNFα mRNA = assay: Human NEC tissue explants treated with LPS, TNFα mRNA; type: cell-based; settings: C34 10 uM, 30 minutes pretreatment; LPS 25 ug/ml, 37° C., 3 hours
Procedure: (§2) The effect of C34 was then tested on explants of human NEC tissue. These explants were obtained from human infants suffering from NEC and were prepared from NEC-affected portions of the intestine. When explants were treated with LPS (25 ug/ml, 37° C., 3 hours) the level of TNFα mRNA (FIG. 12) and iNOS mRNA (FIG. 13) increased precipitously.

iNOS mRNA [3] = assay: Human NEC tissue explants treated with LPS, iNOS mRNA; type: cell-based; settings: C34 10 uM, 30 minutes pretreatment; LPS 25 ug/ml, 37° C., 3 hours
Procedure: as §2

[4] = Murine hemorrhagic shock (H/S) model, serum AST and ALT (liver damage); type: in vivo, mice; settings: 1 mg/kg, i.p. divided in two doses (30 minutes prior to H/S and immediately prior to resuscitation); versus PBS
Procedure: An experiment was performed to test the effect of TLR4 inhibitors and C34 in particular on the tissue damage associated with hemmorhagic shock. A murine model was used in which, under sterile conditions and anesthesia induced using i.p. sodium pentobarbital (20 mg/kg), a left groin exploration was performed, and the left femoral artery was cannulated with tapered polyethylene (PE)-10 tubing and connected to a blood pressure transducer for continuous mean arterial pressure (MAP) monitoring for the duration of the experiment (6 h) as described in Sodhi, et al., 2011, Am. J. Physiol. Gastrointest. Liver Physiol. 300(5):G862-G873. To induce hemorrhagic shock, blood was withdrawn to allow the mean arterial pressure to drop to 25 mmHg over 5 minutes, and the blood pressure was maintained at this level for 150 min. The mice were then resuscitated over 10 min with lactated Ringer's solution. Sham-operated mice underwent anesthesia and femoral cannulation only. In this model system, the extent of liver damage is reflected in increased serum levels of aspartate aminotransferase (AST) and alanine transaminase (ALT).

In the case of `CC(=O)NC1C(OC(C)C)OC(COC(C)=O)C(OC(C)=O)C1OC(C)=O` (centres unmarked) [Compound 34, isopropyl 3,4,6-tri-O-acetyl-2-(acetylamino)-2-deoxyhexopyranoside], the “NFκB signalling (luciferase imaging)” value [1] is reported as “reduced NFκB signalling”, the “increase of iNOS mRNA level in formula-fed (FF) pups” value (iNOS mRNA [2]) is reported as “almost eliminated” and the “level of TLR4 mRNA in FF animals” value (TLR4 mRNA) is reported as “not increased”. For the same molecule, the “TLR4 mRNA levels below normal” value (TLR4 mRNA; FF animals) was 30%, the “LPS-induced increase of TNFα mRNA” value (TNFα mRNA) was “substantially reduced” and the “LPS-induced increase of iNOS mRNA” value (iNOS mRNA [3]) was “substantially reduced”. The “increase in serum ALT in H/S animals” value [4] was “inhibited the increases” and the “increase in serum AST in H/S animals” value [4] was “inhibited the increases in AST”.

— patent US10933077B2, “TLR4 inhibitors for the treatment of human infectious and inflammatory disorders” (UNIVERSITY OF PITTSBURGH—OF THE COMMONWEALTH SYSTEM OF …, priority 2010, dated 2021)
